For 53 compounds, IC50 results are on record in patent US7119073B2, “Peptides and their use as inhibitors of hepatitis C virus ns3 protease” (Istituto Di Ricerche Di Biologia Molecolare P. Angeletti SpA, priority 2001, dated 2006).

Where only a bound is given, the exact number is not on record here.

The first assay deals with T1, NS3 protease domain complexed to a modified form of the NS4A peptide (Pep4AK) (Hepatitis C virus genotype 1b, UniProt P26663).
T1 construct: NS3 protease domain (residues 1027–1206 of the HCV polyprotein)
T1 sequence (P26663 1027-1206, other chains not shown): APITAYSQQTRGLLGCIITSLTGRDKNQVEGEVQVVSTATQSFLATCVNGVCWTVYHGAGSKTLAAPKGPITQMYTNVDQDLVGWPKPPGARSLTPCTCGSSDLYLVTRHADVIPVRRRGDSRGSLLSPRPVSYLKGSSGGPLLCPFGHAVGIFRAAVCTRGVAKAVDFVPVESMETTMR
The assay is described as follows: HCV NS3 protease domain/NS4A cofactor peptide assay (Assay B). It counts as biochemical. The conditions noted are these: NS3 protease domain/NS4A cofactor peptide assay; read-out: Assay B (IC50 class).
In the case of `CC(C)C[C@H](NC(=O)C1(Cc2ccc(C(=O)O)s2)Cc2ccccc2N1)C(=O)N[C@@H](CS)C(=O)NCCc1ccc(C(=O)O)cc1` (mixture of isomers) [Compound 703], the IC50 was below 100 µM. Same read-out and setting: the result for `CC(C)C[C@H](NC(=O)C1(Cc2cccc(C(=O)O)c2)CCc2ccccc2N1)C(=O)N[C@@H](CC(F)F)C(=O)NCCc1ccc(C(=O)O)cc1Cl` (single isomer, unassigned) [Compound 712a] reads below 100 µM; that for `CC(C)C[C@H](NC(=O)C1(Cc2ccsc2C(=O)O)CCc2ccccc2N1)C(=O)N[C@@H](CC(F)F)C(=O)NCCc1c(F)cc(C(=O)O)cc1F` (single isomer, unassigned) [Compound 713], below 100 µM; that for `CC(C)C[C@H](NC(=O)C1(Cc2ccc(C(=O)O)cc2)Cc2ccccc2N1)C(=O)N[C@@H](CS)C(=O)NCCc1ccc(C(=O)O)cc1` (single isomer, unassigned) [Compound 702], below 100 µM.

Staying with this assay, now noted: Table 1; NS3 protease domain/Pep4AK, 4AB peptide substrate; read-out: Assay B.
With `CC(C)COC(=O)NC(CCC(=O)O)C(=O)NC(CC(C)C)C(=O)NC(CS)C(=O)NCCc1ccc(S(N)(=O)=O)cc1` (centres unmarked) [Compound 159], the IC50 is below 10 µM. The same measure, in the same setting: the result for `COC(=O)c1ccccc1CCNC(=O)C(CS)NC(=O)C(CC(C)C)NC(=O)C(CCC(=O)O)NC(=O)OCC(C)C` (centres unmarked) [Compound 122] reads below 100 µM; that for `COC(=O)CCc1ccc(CCNC(=O)C(CS)NC(=O)C(CC(C)C)NC(=O)C(CCC(=O)O)NC(=O)OCC(C)C)cc1` (centres unmarked) [Compound 155], below 100 µM. Regarding `CC(C)COC(=O)NC(CCC(=O)O)C(=O)NC(CC(C)C)C(=O)NC(CS)C(=O)NCCc1c[nH]c2ccccc12` (centres unmarked) [Compound 189], the IC50 was below 100 µM. Same read-out and setting: the result for `CC(C)COC(=O)NC(CCC(=O)O)C(=O)NC(CC(C)C)C(=O)NC(CS)C(=O)NCCc1cccc(Br)c1` (centres unmarked) [Compound 128] reads below 100 µM; that for `CC(C)COC(=O)NC(CCC(=O)O)C(=O)NC(CC(C)C)C(=O)NC(CS)C(=O)NCCc1cccc(Cl)c1` (centres unmarked) [Compound 127], below 100 µM.

Regarding `CC(C)COC(=O)NC(CCC(=O)O)C(=O)NC(CC(C)C)C(=O)NC(CS)C(=O)NCCc1ccc(Cl)c(Cl)c1` (centres unmarked) [Compound 172], the IC50 was below 100 µM.

For `CC(C)COC(=O)NC(CCC(=O)O)C(=O)NC(CC(C)C)C(=O)NC(CS)C(=O)NCCc1ccc(Cl)cc1` (centres unmarked) [Compound 138], the IC50 was below 100 µM. The same measure, in the same setting: the result for `CC(C)COC(=O)NC(CCC(=O)O)C(=O)NC(CC(C)C)C(=O)NC(CS)C(=O)NCCc1ccc(S(=O)(=O)NC(=O)C(C)C)cc1` (centres unmarked) [Compound 161] reads below 10 µM. Still for that read-out and setting: for `COc1ccc(CCNC(=O)C(CS)NC(=O)C(CC(C)C)NC(=O)C(CCC(=O)O)NC(=O)OCc2ccccc2)cc1` (centres unmarked) [Compound 143] the value was below 100 µM; for `CC(C)COC(=O)NC(CCC(=O)O)C(=O)NC(CC(C)C)C(=O)NC(CS)C(=O)NCCc1cccc(Oc2ccccc2)c1` (centres unmarked) [Compound 137], below 100 µM. Same read-out and setting: for `CC(C)COC(=O)N[C@@H](CCC(=O)O)C(=O)N[C@@H](CC(C)C)C(=O)N[C@@H](CS)C(=O)NCC1(c2ccccc2)CC1` [Compound 109] the value was below 100 µM; for `CC(C)COC(=O)NC(C(=O)NC(CC(C)C)C(=O)NC(CC(F)F)C(=O)NCCc1ccc(C(=O)O)cc1Cl)C(C)C` (centres unmarked) [Compound 179], below 10 µM.

As to `COc1cc(CCNC(=O)C(CS)NC(=O)C(CC(C)C)NC(=O)C(CCC(=O)O)NC(=O)OCC(C)C)ccc1O` (centres unmarked) [Compound 175], the IC50 was below 100 µM. Same read-out and setting: for `CC(C)COC(=O)N[C@@H](CCC(=O)O)C(=O)N[C@@H](CC(C)C)C(=O)N[C@@H](CS)C(=O)NCC(CC(=O)O)c1ccc(Cl)cc1` (some centres unmarked) [Compound 111] the value was below 100 µM; for `COC(=O)c1ccc(CCNC(=O)C(CS)NC(=O)C(CC(C)C)NC(=O)C(CCC(=O)O)NC(=O)OCC(C)C)cc1` (centres unmarked) [Compound 150], below 100 µM. Still for that read-out and setting: for `CC(C)C[C@H](NC(=O)[C@@H](NC(=O)OCc1ccc(C(=O)O)cc1)C(C)C)C(=O)N[C@@H](CS)C(=O)NCCc1ccccc1` [Compound 102] the value was below 100 µM; for `CC(C)COC(=O)N[C@@H](CCC(=O)O)C(=O)N[C@@H](CC(C)C)C(=O)N[C@@H](CS)C(=O)NCC(O)c1ccccc1` (mixture of isomers) [Compound 106], below 100 µM. Regarding `COc1ccc(CCNC(=O)C(CS)NC(=O)C(CC(C)C)NC(=O)C(CCC(=O)O)NC(=O)OC(C)(C)C)cc1` (centres unmarked) [Compound 142], the IC50 is below 100 µM.

`CC(C)COC(=O)NC(CCC(=O)O)C(=O)NC(CC(C)C)C(=O)NC(CS)C(=O)NCCc1ccc(C(C)(C)C)cc1` (centres unmarked) [Compound 148]: the IC50 is below 100 µM. The same measure, in the same setting: for `CC(C)COC(=O)N[C@@H](CCC(=O)O)C(=O)N[C@@H](CC(C)C)C(=O)N[C@@H](CS)C(=O)NCCc1ccsc1` [Compound 190] the value was below 10 µM; for `CC(C)COC(=O)NC(CCC(=O)O)C(=O)NC(CC(C)C)C(=O)NC(CS)C(=O)NCCc1ccccc1OCc1ccccc1` (centres unmarked) [Compound 124], below 100 µM. On to `CC(C)COC(=O)N[C@@H](CCC(=O)O)C(=O)N[C@@H](CC(C)C)C(=O)N[C@@H](CS)C(=O)NC[C@H](C)c1ccccc1` [Compound 108], for which the IC50 was below 100 µM. Take `CC(C)CCOC(=O)NC(C(=O)NC(CC(C)C)C(=O)NC(CS)C(=O)NCCc1ccc(C(=O)O)cc1Cl)C(C)C` (centres unmarked) [Compound 184]: the IC50 was below 10 µM.

Regarding `CC(C)COC(=O)NC(CCC(=O)O)C(=O)NC(CC(C)C)C(=O)NC(CS)C(=O)NCCc1ccccc1F` (centres unmarked) [Compound 112], the IC50 was below 100 µM. On the same count and under the same terms, the result for `CC(C)COC(=O)NC(CCC(=O)O)C(=O)NC(CC(C)C)C(=O)NC(CS)C(=O)NCCc1ccc(S(=O)(=O)NC(=O)c2ccccc2)cc1` (centres unmarked) [Compound 162] reads below 10 µM. On to `CC(C)COC(=O)NC(CCC(=O)O)C(=O)NC(CC(C)C)C(=O)NC(CS)C(=O)NCCc1ccccc1Cl` (centres unmarked) [Compound 113], for which the IC50 was below 100 µM.

The assay is the same for the next values; noted with them: Table 2; NS3 protease domain/Pep4AK; read-out: Assay B.
Consider `COc1ccc(CCNC(=O)[C@H](CS)NC(=O)[C@H](CC(C)C)NC(=O)[C@H](CCC(=O)O)NC(=O)c2ccccc2)cc1` [Compound 202], for which the IC50 is below 100 µM. On the same count and under the same terms, for `COc1ccc(CCNC(=O)[C@H](CS)NC(=O)[C@H](CC(C)C)NC(=O)[C@H](CCC(=O)O)NC(=O)CC(C)(C)CC(=O)O)cc1` [Compound 241] the value was below 100 µM.

As to `C=CCNC(=O)N[C@@H](CCC(=O)O)C(=O)N[C@@H](CC(C)C)C(=O)N[C@@H](CS)C(=O)NCCc1ccccc1Cl` [Compound 246], the IC50 is below 100 µM. Same read-out and setting: the result for `CC(C)C[C@H](NC(=O)[C@H](CCC(=O)O)NC(=O)CCC1CCCC1)C(=O)N[C@@H](CS)C(=O)NCCc1ccccc1Cl` [Compound 235] reads below 100 µM. Same read-out and setting: the result for `CC(C)C[C@H](NC(=O)[C@H](CCC(=O)O)NC(=O)c1ccncc1N)C(=O)N[C@@H](CS)C(=O)NCCc1ccccc1Cl` [Compound 209] reads below 100 µM; that for `CC(C)C[C@H](NC(=O)[C@H](CCC(=O)O)NC(=O)CC1CCCCC1)C(=O)N[C@@H](CS)C(=O)NCCc1ccccc1Cl` [Compound 234], below 100 µM; that for `C=CCCC(=O)N[C@@H](CCC(=O)O)C(=O)N[C@@H](CC(C)C)C(=O)N[C@@H](CS)C(=O)NCCc1ccccc1Cl` [Compound 228], below 100 µM. The same measure, in the same setting: the result for `CC(C)C[C@H](NC(=O)[C@H](CCC(=O)O)NS(=O)(=O)c1ccccc1)C(=O)N[C@@H](CS)C(=O)NCCc1ccccc1Cl` [Compound 249] reads below 100 µM; that for `CC(C)C[C@H](NC(=O)[C@H](CCC(=O)O)NC(=O)c1ccccc1-c1ccccc1C(=O)O)C(=O)N[C@@H](CS)C(=O)NCCc1ccccc1Cl` [Compound 211], below 100 µM; that for `CC(C)C[C@H](NC(=O)[C@H](CCC(=O)O)NC(=O)Nc1ccccc1)C(=O)N[C@@H](CS)C(=O)NCCc1ccccc1Cl` [Compound 247], below 100 µM. As to `COc1ccc(CCNC(=O)[C@H](CS)NC(=O)[C@H](CC(C)C)NC(=O)[C@H](CCC(=O)O)NC(=O)c2ccc3c(c2)OCO3)cc1` [Compound 204], the IC50 is below 100 µM. The same measure, in the same setting: the result for `CC(C)C[C@H](NC(=O)[C@H](CCC(=O)O)NC(=O)Cc1ccccc1CC(=O)O)C(=O)N[C@@H](CS)C(=O)NCCc1ccc(Cl)cc1Cl` [Compound 225] reads below 10 µM; that for `CC(C)C[C@H](NC(=O)[C@H](CCC(=O)O)NC(=O)N1CCOCC1)C(=O)N[C@@H](CS)C(=O)NCCc1ccccc1Cl` [Compound 237], below 100 µM; that for `CC(C)C[C@H](NC(=O)[C@H](CCC(=O)O)NC(=O)C1C[C@H]1c1ccccc1)C(=O)N[C@@H](CS)C(=O)NCCc1ccccc1Cl` (some centres unmarked) [Compound 219], below 100 µM.

The assay is the same for the next values; noted with them: Table 4; NS3 protease domain/Pep4AK; read-out: Assay B.
In the case of `CCC[C@H](NC(=O)[C@H](CCC(=O)O)NC(=O)OCC(C)C)C(=O)N[C@@H](CS)C(=O)NCCc1ccccc1Cl` [Compound 405], the IC50 was below 100 µM. The same measure, in the same setting: the result for `CC(C)COC(=O)N[C@@H](CCC(=O)O)C(=O)N(C)[C@@H](CC(C)C)C(=O)N[C@@H](CS)C(=O)NCCc1ccccc1Cl` [Compound 416] reads below 100 µM; that for `CC(C)COC(=O)N[C@@H](CCC(=O)O)C(=O)N1Cc2ccccc2C[C@H]1C(=O)N[C@@H](CS)C(=O)NCCc1ccccc1Cl` [Compound 417], below 100 µM. The same measure, in the same setting: for `CC(C)COC(=O)NC(CCC(=O)O)C(=O)N1C(C(=O)NC(CS)C(=O)NCCc2ccccc2Cl)CCC1c1ccccc1` (centres unmarked) [Compound 422] the value was below 100 µM; for `CC(C)COC(=O)NC(CCC(=O)O)C(=O)N1CCC1C(=O)NC(CS)C(=O)NCCc1ccccc1Cl` (centres unmarked) [Compound 418], below 100 µM; for `CC(C)COC(=O)N[C@@H](CCC(=O)O)C(=O)N[C@@H](CCc1ccccc1)C(=O)N[C@@H](CS)C(=O)NCCc1ccccc1Cl` [Compound 414], below 100 µM. Still for that read-out and setting: for `CC(C)COC(=O)N[C@@H](CCC(=O)O)C(=O)N1c2ccccc2C[C@H]1C(=O)N[C@@H](CC(F)F)C(=O)NCCc1ccc(C(=O)O)cc1Cl` [Compound 421] the value was below 100 µM.

`CC(C)COC(=O)N[C@@H](CCC(=O)O)C(=O)N[C@@H](CCC(=O)O)C(=O)N[C@@H](CS)C(=O)NCCc1ccccc1Cl` [Compound 412]: the IC50 is below 100 µM.
